# Patent publication US8252832B2, “Kinesin inhibitors as cancer therapeutics” (Novartis AG, priority 2007, dated 2012)
# Where two headings read alike, the source gives them in different places.
# Tests used:
# Test in all cases: CellTiter-Glo, NCI60 panel
# Assay type in all cases: cell-based
# NCI-H23 = settings: NSCL; for GI50: Homo sapiens
# Text: (§1) Identification of tumor types that are the most sensitive to the KSP inhibitors of the present invention can be accomplished using an unbiased approach that uses several cell-based assays. The assays chosen were as follows: • CellTiter-Glo®. This is an assay designed to measure ATP concentration in a cell culture, and can be correlated to cell number. Briefly CellTiter-Glo® (Promega Corporation) is a homogeneous method using the single CellTiter-Glo® reagent to detect ATP wherein ATP in the assay drives the activity of a thermostable luciferase to create a luminescent signal which can then be measured and correlated with the number of viable cells. Briefly, for adherent cells, 1,000 to 5,000 cells/well were plated in 96-well plates (100 μl/well) and let to adhere for 24 hours before being treated with drug. For non-adherent cells, 1,000 to 10,000 cells/well were plated in 96-well plates (100 μl/well) and immediately treated with drug. Drug dilutions were prepared in DMSO at 1000 times the final concentration. These dilutions were then diluted 1/100 in growth media before being added to the cells (11 μl/well) to achieve the desired final concentration. After 48 h in a 37° C. tissue culture incubator, the plates were processed for the CellTiter-Glo®assay according to the manufacturer's instructions. Protocol for a 72 hour cell proliferation assay: The 72 hour assay was performed the same way as the 48 hour assay except for the following modifications: For adherent cells, 500 to 5,000 cells/well were plated in 96-well plates (90 μl/well cell growth media) and left to adhere for 24 hours before being treated with drug. For non-adherent cells, 1,000 to 10,000 cells/well were plated in 96-well plates (90 μl/well cell growth media) and immediately treated with drug. Data values presented represent the concentration of test compound required for a 50% reduction in growth. • LDH release. The Cytotoxicity Detection KitPLUS (LDH) assay (Roche Diagnostics, Manheim, Germany) measures the amount of LDH released in the media by dying cells; LDH catalyzes the conversion of lactate into pyruvate. The enzymatic reaction is coupled to a chemical reaction that uses a tetrazolium salt to form a formazan that is red and can be detected by its absorbance at 490 nm. This assay measures the amount of cell death after drug treatment. Cells were plated at 10,000 cells/well in 96-well plates (100 μl/well). Adherent cells were let to adhere for 24 hours before being treated with drug, whereas non-adherent cells were immediately treated with drug. Drug dilutions were prepared in DMSO at 1000 times the final concentration. These dilutions were then diluted 1/100 in growth media before being added to the cells (11 μl/well) to achieve the desired final concentration. After 48 h in a 37° C. tissue culture incubator, the plates were processed for the Cytotoxicity Detection KitPLUS (LDH) assay according to the manufacturer's instructions. The media only values were subtracted from all the data points before analysis. Data values presented correspond to the compound concentration wherein LDH output is at half maximal level. • Caspase-Glo® 3/7. The Caspase-Glo® 3/7 Assay (Promega Corporation) is a homogeneous luminescent assay that measures caspase-3/7 activities. The assay provides a proluminescent caspase-3/7 DEVD-aminoluciferin substrate and a thermostable luciferase in a reagent optimized for caspase-3/7 activity, luciferase activity and cell lysis. Adding the single Caspase-Glo® 3/7 Reagent results in cell lysis, followed by caspase cleavage of the substrate. This liberates free aminoluciferin, which is consumed by the luciferase, generating a luminescent signal. The signal is proportional to caspase-3/7 activity. Data values presented correspond to the compound concentration wherein caspase 3/7 activity is at half maximal level. […]
# OVCAR-4 = settings: Ovarian; for GI50: Homo sapiens
# Text: as §1
# OVCAR-8 = settings: Ovarian; for GI50: Homo sapiens
# Text: as §1
# SF-539 = settings: CNS; for GI50: Homo sapiens
# Text: as §1
# UACC-62 = settings: Melanoma; for GI50: Homo sapiens
# Text: as §1
# SNB-19 = settings: CNS; for GI50: Homo sapiens
# Text: as §1
# U251 = settings: for GI50: Homo sapiens, U-251, CNS
# Text: as §1
# K-562 = settings: for GI50: Homo sapiens, K562, Leukemia
# Text: as §1
# UO-31 = settings: Renal; for GI50: Homo sapiens
# Text: as §1
# NCI-H522 = settings: NSCL; for GI50: Homo sapiens
# Text: as §1
# HCC-2998 = settings: Colon; for GI50: Homo sapiens
# Text: as §1
# PC-3 = settings: Prostate; for GI50: Homo sapiens
# Text: as §1
# RPMI-8226 = settings: Leukemia; for GI50: Homo sapiens
# Text: as §1
# SK-MEL-28 = settings: Melanoma; for GI50: Homo sapiens
# Text: as §1
# SK-OV-3 = settings: Ovarian; for GI50: Homo sapiens
# Text: as §1
# [1] = GI50 in nM, read-out: Log(GI50) (converted)
smiles,measurement,setting,value
CC(C)(C)[C@H](c1nc(-c2cc(F)ccc2F)cn1Cc1ccccc1)N(CC[C@H](N)CF)C(=O)CO [Compound IIa],GI50,NCI-H23; [1],0.223 nM
same,GI50,NCI-H23; read-out: GI50,0.223 nM
same,Differential vs mean Log(GI50),NCI-H23,0.983
same,GI50,OVCAR-4; [1],10 nM
same,GI50,OVCAR-4; read-out: GI50,10 nM
same,Differential vs mean Log(GI50),OVCAR-4,−0.669
same,GI50,OVCAR-8; [1],0.324 nM
same,GI50,OVCAR-8; read-out: GI50,0.324 nM
same,Differential vs mean Log(GI50),OVCAR-8,0.821
same,Differential vs mean Log(GI50),SF-539,0.743
same,GI50,SF-539; [1],0.387 nM
same,GI50,SF-539; read-out: GI50,0.387 nM
same,GI50,UACC-62; [1],10 nM
same,GI50,UACC-62; read-out: GI50,10 nM
same,Differential vs mean Log(GI50),UACC-62,−0.669
same,Differential vs mean Log(GI50),SNB-19,−0.669
same,GI50,SNB-19; [1],10 nM
same,GI50,SNB-19; read-out: GI50,10 nM
same,Differential vs mean Log(GI50),U251; CNS,0.953
same,GI50,U251; [1],0.239 nM
same,GI50,U251; read-out: GI50,0.239 nM
same,GI50,K-562; [1],0.218 nM
same,GI50,K-562; read-out: GI50,0.218 nM
same,Differential vs mean Log(GI50),K-562; Leukemia,0.993
same,GI50,UO-31; [1],10 nM
same,GI50,UO-31; read-out: GI50,10 nM
same,Differential vs mean Log(GI50),UO-31,−0.669
same,GI50,NCI-H522; [1],0.166 nM
same,GI50,NCI-H522; read-out: GI50,0.166 nM
same,Differential vs mean Log(GI50),NCI-H522,1.111
same,Differential vs mean Log(GI50),HCC-2998,0.547
same,GI50,HCC-2998; [1],0.608 nM
same,GI50,HCC-2998; read-out: GI50,0.608 nM
same,GI50,PC-3; [1],10 nM
same,GI50,PC-3; read-out: GI50,10 nM
same,Differential vs mean Log(GI50),PC-3,−0.669
same,GI50,RPMI-8226; [1],0.351 nM
same,GI50,RPMI-8226; read-out: GI50,0.351 nM
same,Differential vs mean Log(GI50),RPMI-8226,0.786
same,GI50,SK-MEL-28; [1],10 nM
same,GI50,SK-MEL-28; read-out: GI50,10 nM
same,Differential vs mean Log(GI50),SK-MEL-28,−0.669
same,GI50,SK-OV-3; [1],0.421 nM
same,GI50,SK-OV-3; read-out: GI50,0.421 nM
same,Differential vs mean Log(GI50),SK-OV-3,0.707
